Data published in article PMC11968843, “Sulphostin-inspired N-phosphonopiperidones as selective covalent DPP8 and DPP9 inhibitors” (Nature Communications, 2025).
“And” between values parts separate entries of the source, which are not always exact repeats. Equal values may be shown once. “Also recorded” adds a separate entry of the source.

Legend:
DPP8 = molecular target: T1, DPP8 (Homo sapiens, UniProt Q6V1X1); test: biochemical; format: biochemical
T1 construct: purchased Proteros Biostructures GmbH, Germany
T1 sequence (Q6V1X1 whole entry): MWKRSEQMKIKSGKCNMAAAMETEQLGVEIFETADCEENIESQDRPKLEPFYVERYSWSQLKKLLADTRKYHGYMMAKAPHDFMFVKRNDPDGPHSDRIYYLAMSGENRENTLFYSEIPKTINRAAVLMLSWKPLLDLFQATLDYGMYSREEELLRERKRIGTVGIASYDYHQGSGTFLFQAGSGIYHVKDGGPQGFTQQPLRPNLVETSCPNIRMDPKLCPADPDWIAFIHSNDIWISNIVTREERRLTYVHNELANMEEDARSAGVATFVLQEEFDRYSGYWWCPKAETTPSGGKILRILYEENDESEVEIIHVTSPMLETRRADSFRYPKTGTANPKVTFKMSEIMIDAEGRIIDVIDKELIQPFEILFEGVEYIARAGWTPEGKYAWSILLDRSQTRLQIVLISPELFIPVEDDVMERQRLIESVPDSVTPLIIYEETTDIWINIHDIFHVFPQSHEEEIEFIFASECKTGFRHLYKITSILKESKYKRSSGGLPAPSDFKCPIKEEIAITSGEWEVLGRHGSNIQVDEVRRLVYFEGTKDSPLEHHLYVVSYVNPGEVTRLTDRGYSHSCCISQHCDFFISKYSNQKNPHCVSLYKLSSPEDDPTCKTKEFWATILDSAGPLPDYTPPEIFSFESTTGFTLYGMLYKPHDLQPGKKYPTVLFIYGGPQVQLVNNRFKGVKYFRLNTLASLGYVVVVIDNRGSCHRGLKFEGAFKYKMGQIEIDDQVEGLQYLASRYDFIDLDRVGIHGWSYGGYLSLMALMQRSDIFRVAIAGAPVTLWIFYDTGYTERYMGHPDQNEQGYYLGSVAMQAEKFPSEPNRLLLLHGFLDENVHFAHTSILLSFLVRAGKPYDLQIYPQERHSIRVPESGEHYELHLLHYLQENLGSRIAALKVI
Protocol: (§1) Enzyme activity of DPP4, DPP8, DPP9 (Proteros Biostructures GmbH, Germany) and PREP (Sigma Aldrich, USA) was determined by measuring the initial velocity of AMC release from the fluorogenic substrate GP-AMC (Sigma Aldrich, USA) using a Tecan Spark® 10 M multimode microplate reader (Tecan Group Ltd., Switzerland) in activity buffer (20 mM HEPES/KOH pH 7.3, 110 mM potassium acetate, 2 mM Mg acetate, 0.5 mM EGTA, 0.02% Tween 20, supplemented with 1 mM DTT) and a final volume of 20 μL for maximal 60 min at 30 °C. Prior to activity measurement, 10 nM enzyme was incubated for 45 min at 30 °C and gentle shaking with the inhibitor compounds in concentrations ranging from 0 to 100 μM. The compounds were dissolved in DMSO and diluted in activity buffer (final DMSO concentration: 1%). […] IC50 values were calculated using Graph-Pad Prism v10.2.3 using the equation: [Inhibitor] vs. response—Variable slope (four parameters). All measurements were performed in triplicates and error bars represent standard errors of the fit.

[1] = molecular target: T2, DPP9-BRCA2 interaction in HeLa wild-type cells (Homo sapiens, UniProt Q86TI2); test: Proximity ligation assay (PLA) of MMC-induced DPP9-BRCA2 interaction; format: cell-based; conditions: for 95% confidence interval of difference: compound vs. +Ctrl., Unpaired two-sided t-test
T2 construct: endogenous in cells; host or cells: HeLa wild-type (HeLa Flp-In T-REx WT)
T2 sequence (Q86TI2 whole entry): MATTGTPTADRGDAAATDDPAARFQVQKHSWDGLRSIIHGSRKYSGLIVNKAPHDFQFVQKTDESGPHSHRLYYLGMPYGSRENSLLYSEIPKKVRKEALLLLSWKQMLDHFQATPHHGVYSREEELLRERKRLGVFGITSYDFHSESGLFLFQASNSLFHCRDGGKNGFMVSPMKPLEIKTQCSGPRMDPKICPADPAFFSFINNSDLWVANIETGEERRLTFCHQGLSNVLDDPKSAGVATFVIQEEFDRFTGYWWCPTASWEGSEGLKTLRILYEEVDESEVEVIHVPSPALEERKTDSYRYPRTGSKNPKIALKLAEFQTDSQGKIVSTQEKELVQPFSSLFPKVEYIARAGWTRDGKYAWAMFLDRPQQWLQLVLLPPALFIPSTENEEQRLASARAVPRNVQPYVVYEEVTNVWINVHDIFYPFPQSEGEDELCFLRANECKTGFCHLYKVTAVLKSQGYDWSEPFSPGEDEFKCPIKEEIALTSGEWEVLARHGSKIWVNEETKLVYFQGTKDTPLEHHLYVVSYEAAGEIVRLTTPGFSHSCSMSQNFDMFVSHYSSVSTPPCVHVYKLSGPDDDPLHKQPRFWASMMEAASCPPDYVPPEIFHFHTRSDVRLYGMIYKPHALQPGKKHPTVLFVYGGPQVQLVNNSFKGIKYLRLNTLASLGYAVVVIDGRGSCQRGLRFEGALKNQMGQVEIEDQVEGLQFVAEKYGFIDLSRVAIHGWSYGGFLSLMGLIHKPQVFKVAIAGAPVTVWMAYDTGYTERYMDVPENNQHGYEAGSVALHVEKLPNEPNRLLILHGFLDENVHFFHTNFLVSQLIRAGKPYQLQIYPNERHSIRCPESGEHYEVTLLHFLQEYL
Protocol: HeLa wild-type cells were cultured as described above. Cells were seeded on coverslips in 24‐well plates (Greiner, Germany) at a concentration of 2 × 10^4 cells per well (37 °C and 5% CO2). To induce a DPP9-BRCA2 interaction, 300 nM MMC was added to the cells 8 h after seeding and for a total incubation time of 24 h. Indicated Inhibitors (10 µM) were added 1 h prior to cell fixation. Cells were fixed with 4% formaldehyde in PBS for 10 min and permeabilized with 0.2% Triton‐X‐100 in PBS for 5 min. The proximity ligation assay (PLA) was performed using the Duolink in situ PLA Kit (Sigma Aldrich, USA). Briefly, cells were washed with PBS and blocked with Duolink Blocking solution for 60 min at 37 °C. […] Antibody control coverslips were treated with only one primary antibody to estimate background staining in each experiment. Coverslips were washed and treated with PLA reagents according to the manufacturers protocol. Cells were mounted in DAKO with DAPI fluorescent mounting medium and analyzed using an LSM 710 confocal microscope, 63x NA 1.4 oil immersion objective (Zeiss, Germany). Images were processed using Zen black v2.3 (Zeiss, Germany) and subsequently analyzed using the Duolink ImageTool Setup 1.0.1.2 (Sigma Aldrich, USA).

HeLa wild-type cells [2] = test: Cell viability assay (MTT), inhibitor alone; format: cell-based; conditions: for Cell viability normalized to mock treated cells + 0 µM MMC: individual replicate values (Supplementary Figure 11a); for 95% confidence interval of difference: Figure 5d S11a, Ctrl. [-MMC] vs. compound [-MMC], Tukey's multiple comparisons test
Protocol: (§2) HeLa wild-type (HeLa Flp-In T-REx WT, kind gift from Prof. Matthias Hentze) and HeLa DPP9^KO cells (prepared in-house) were cultured in DMEM (ThermoFisher, USA) supplemented with 10% FBS (PAN Biotech, Germany), 2 mM L-Glutamin (ThermoFisher, USA) and 1% Penicillin/Streptomycin (100 U mL^−1 Penicillin and 100 µg mL^−1 Streptomycin, ThermoFisher, USA). Cells were seeded in 96-well flat-bottom cell culture plates (Greiner, Germany) at a concentration of 5 × 10^3 cells per well (37 °C and 5% CO2). The indicated concentration of Mitomycin C (MMC, Merck) was added to the cells 24 h after seeding, together with 10 µM of the indicated inhibitor. The inhibitors were refreshed every 24 h. Control cells were treated with DMSO.
(§3) Cell viability was measured 72 hours after the MMC treatment. For this, the medium was removed and replaced with phenol-red free DMEM (ThermoFisher, USA) containing 0.5 mg mL^−1 MTT (Sigma Aldrich, USA). Cells were incubated for 30 min at 37 °C, 5% CO2. Subsequently, the medium was removed and replaced by DMSO. The plates were shaken on an orbital shaker for 20 min before measuring the MTT signal on a CARIOstar Plus microplate reader (BMT labtech, Germany). Each experiment was performed three times, each in triplicates.

HeLa wild-type cells [3] = test: Cell viability assay (MTT), co-treatment with Mitomycin C; format: cell-based; conditions: for cell viability normalized for each condition seperately to corresponsing [-MMC +inhibitor] control: +MMC co-treatment, individual replicate values (Supplementary Figure 11b); for effect on cell viability / sensitivity to MMC: HeLa wild-type, 1 µM MMC + 10 µM inhibitor, 72 h
Protocol: as §2, §3

DPP9 = DPP9 (Homo sapiens, UniProt Q86TI2); test: biochemical; format: biochemical; set-up: purchased Proteros Biostructures GmbH, Germany
Chain of DPP9 (Q86TI2 whole entry): as above
Protocol: as §1

[4] = Figure 5d S11a, + Ctrl. [+MMC] vs. compound [+MMC], Tukey's multiple comparisons test
[5] = Figure S11b, Ctrl. vs. compound, Uncorrected Fisher's LSD

Q: `N[C@@H](CC(=O)N1CCN(C(c2ccc(F)cc2)c2ccc(F)cc2)CC1)C(=O)N1Cc2ccccc2C1` [1G244, reference compound] was tested. Which IC50 (DPP8; GP-AMC 250 µM, 10 nM enzyme, 45 min pre-incubation at 30 °C, read-out: IC50 DPP8) did it give?
A: 4.4 ± 1.5 nM

Q: What about the “DPP8 activity [%]” value (DPP8; c 1.6 nM) of the same molecule?
A: 91.0893% and 98.7118% and 100.309%

Q: And the “DPP8 activity [%]” value (DPP8; c 3.1 nM)?
A: 71.9188% and 85.2033% and 73.5988%

Q: What about the “DPP8 activity [%]” value (DPP8; c 6.3 nM) of the same molecule?
A: 45.4307% and 54.9695% and 54.3535%

Q: What about the “DPP8 activity [%]” value (DPP8; c 25 nM) of the same molecule?
A: 12.8362% and 14.9584% and 14.076%

Q: And the “DPP8 activity [%]” value (DPP8; c 50 nM)?
A: 6.548% and 6.987% and 5.844%

Q: What about the “DPP8 activity [%]” value (DPP8; c 100 nM) of the same molecule?
A: 2.369% and 3.267% and 3.933%

Q: And the “95% confidence interval of difference” value ([1]; Figure 5c)?
A: -77,49 to -58,50

Q: What about the “95% confidence interval of difference” value ([1]; Figure S10a replicate 1) of the same molecule?
A: -64,34 to -33,22

Q: What about the “95% confidence interval of difference” value ([1]; Figure S10a replicate 2) of the same molecule?
A: -102,2 to -69,11

Q: And the “95% confidence interval of difference” value ([1]; Figure S10a replicate 3)?
A: -86,10 to -55,17

Q: What about the “effect on MMC-induced DPP9-BRCA2 PLA events” value ([1]; HeLa wild-type, 300 nM MMC 24 h, 10 µM inhibitor) of the same molecule?
A: fewer MMC-induced PLA events

Q: What about the “Cell viability normalized to mock treated cells + 0 µM MMC” value (HeLa wild-type cells [2]) of the same molecule?
A: 47.738% and 64.0147% and 69.6676% and 64.7998% and 59.8364% and 62.7117% and 63.5049% and 78.6659% and 67.3863%

Q: And the “95% confidence interval of difference” value (HeLa wild-type cells [2])?
A: 26,96 to 48,16

Q: What about the “effect on cell viability without MMC” value (HeLa wild-type cells [2]; HeLa wild-type, 10 µM, 72 h) of the same molecule?
A: reduced cell viability

Q: And the “cell viability normalized for each condition seperately to corresponsing [-MMC +inhibitor] control” value (HeLa wild-type cells [3])?
A: 65.3963% and 56.5004% and 50.0376% and 54.1195% and 51.2842% and 44.9012% and 47.541% and 41.8131% and 48.7041%

Q: And the “95% confidence interval of difference” value (HeLa wild-type cells [3]; [4])?
A: 21,97 to 43,17

Q: And the “95% confidence interval of difference” value (HeLa wild-type cells [3]; [5])?
A: 6,539 to 20,16

Q: What about the “effect on cell viability / sensitivity to MMC” value (HeLa wild-type cells [3]) of the same molecule?
A: increases the sensitivity of; also recorded: significantly reduced cell viability

Q: What about the IC50 (DPP9; GP-AMC 250 µM, 10 nM enzyme, 45 min pre-incubation at 30 °C, read-out: IC50 DPP9) of the same molecule?
A: 14 ± 2 nM

Q: What about the “DPP9 activity [%]” value (DPP9; c 1.6 nM) of the same molecule?
A: 98.3651% and 97.0319% and 99.1099%

Q: And the “DPP9 activity [%]” value (DPP9; c 3.1 nM)?
A: 86.8432% and 92.2931% and 89.5294%

Q: What about the “DPP9 activity [%]” value (DPP9; c 6.3 nM) of the same molecule?
A: 74.2081% and 76.5022% and 75.3461%

Q: What about the “DPP9 activity [%]” value (DPP9; c 25 nM) of the same molecule?
A: 35.0531% and 41.6358% and 39.7574%

Q: What about the “DPP9 activity [%]” value (DPP9; c 50 nM) of the same molecule?
A: 22.1104% and 25.58% and 23.0144%

Q: What about the “DPP9 activity [%]” value (DPP9; c 100 nM) of the same molecule?
A: 13.084% and 15.2109% and 15.2279%

Q: With `N[C@@H](CC(=O)N1CCn2c(nnc2C(F)(F)F)C1)Cc1cc(F)c(F)cc1F` [Sitagliptin] as the molecule, how does the “Cell viability normalized to mock treated cells + 0 µM MMC” value (HeLa wild-type cells [2]) read?
A: 87.835% (2×) and 113.478% (2×) and 105.575% (2×) and 118.346% (2×) and 103.264% (2×) and 91.1179% (2×) and 93.7454% (2×) and 87.0346% (2×) and 95.6216% (2×)

Q: What about the “95% confidence interval of difference” value (HeLa wild-type cells [2]) of the same molecule?
A: -8,338 to 12,86

Q: And the “cell viability normalized for each condition seperately to corresponsing [-MMC +inhibitor] control” value (HeLa wild-type cells [3])?
A: 57.6636% and 68.4041% and 71.5915% and 62.1849% and 65.8665% and 55.7127% and 55.3675% and 52.3411% and 61.9483%

Q: What about the “95% confidence interval of difference” value (HeLa wild-type cells [3]; [4]) of the same molecule?
A: -7,015 to 14,19

Q: And the “95% confidence interval of difference” value (HeLa wild-type cells [3]; [5])?
A: -3,548 to 10,07

Q: What about the “effect on cell viability / sensitivity to MMC” value (HeLa wild-type cells [3]) of the same molecule?
A: no additional effect
